Measured values: patent publication US5552441A, “Leukotriene B4 antagonists” (Eli Lilly and Company, priority 1994, dated 1996)
Counter-ions that a name gives are not always drawn.

How the values were obtained:
[1] = biological target: [^3 H]-LTB4 binding to guinea pig lung membranes (Cavia porcellus, UniProt H0VYV8); assay: Inhibition of [^3 H]LTB4 Binding to Guinea Pig Lung Membranes; conditions: approximately 140 pM [^3 H]-LTB4, 45 minutes at 30° C., pH 6.5, mean -log Ki, read-out: Inhibition of [^3 H]LTB4 Binding to Guinea Pig Lung Membranes pKi (converted)
[2] = biological target: leukotriene B4 specific receptor on the membrane of human neutrophils (Homo sapiens, UniProt Q15722); assay: biochemical; conditions: 0.1-0.2 nM ^3 H-LTB4, 10 minutes at 4° C., read-out: Inhibition of [^3 H]LTB4 Binding to Human Neutrophils IC50
Procedure: The effectiveness of compounds to inhibit the binding of leukotriene B4 to a specific receptor on the membrane of human neutrophils was measured by using an adaptation of a radio-ligand binding assay developed by Goldman and Goetzl, J. Immunol., 129, 1600 (1982). Other investigators have developed similar assays (see, e.g., Kreisle, et al., J. Exp. Med., 157, 628 (1983) and Lin, et al., Prostaglandins, 28, 837 (1984)).
Cells used in the assay were isolated by standard techniques of centrifugation on Ficoll-Hypaque, dextran 70 sedimentation and hypotonic lysis. The following procedure was used. Freshly-prepared buffy coat layers from two individuals were obtained from a local blood donor center. The cells were mixed and diluted to 484 ml with phosphate buffered saline containing heparin (10 units/ml) and heat-inactivated calf serum (5%). This was divided into 20 ml aliquots and the aliquots layered on top of Ficoll-Paque (12 ml). The material was then centrifuged at 500 g for 40 minutes at room temperature. The resulting upper layer of platelets and mononuclear cells was discarded. The lower layer containing erythrocytes and neutrophils was retained. Buffer was added (1 ml per 4 ml of lower layer) and the suspension mixed. For each milliliter of this mixture, 0.33 ml of 6% Macrodex was added. After stirring the cells were allowed to sediment for 1 hour at 37° C. The resulting erythrocyte pellet was discarded and the neutrophil enriched supernatant fluid centrifuged at 500 g for 10 minutes at 4° C. […] Subsequently, the volume was made up to 50 ml by addition of ice-cold buffer and the cells resuspended. The suspension was then centrifuged at 300 g for 10 minutes at 4° C. […] This buffer consisted of Hanks' balanced salt solution and 0.1% ovalbumin (pH 7.3).
The amount of bound ^3 H-LTB4 was then measured and compared with the amount bound in the absence of test compound. The assay was carried out in microcentrifuge tubes by adding first 10 μl test compound dissolved in DMSO, followed by adding 20 μl ^3 H-LTB4 diluted in assay buffer, and finally adding 500 μl of the cell suspension. At the end of the 10 minutes incubation, 300 μl of a mixture of dibutyl and dinonyl phthalate (7:2) were added and the tubes centrifuged for 2 minutes in a microcentrifuge. The radioactivity bound to the cell pellet was measured by scintillation spectroscopy.

leukotriene B4 specific receptor on the membrane of human neutrophils, sequence (Q15722 whole entry): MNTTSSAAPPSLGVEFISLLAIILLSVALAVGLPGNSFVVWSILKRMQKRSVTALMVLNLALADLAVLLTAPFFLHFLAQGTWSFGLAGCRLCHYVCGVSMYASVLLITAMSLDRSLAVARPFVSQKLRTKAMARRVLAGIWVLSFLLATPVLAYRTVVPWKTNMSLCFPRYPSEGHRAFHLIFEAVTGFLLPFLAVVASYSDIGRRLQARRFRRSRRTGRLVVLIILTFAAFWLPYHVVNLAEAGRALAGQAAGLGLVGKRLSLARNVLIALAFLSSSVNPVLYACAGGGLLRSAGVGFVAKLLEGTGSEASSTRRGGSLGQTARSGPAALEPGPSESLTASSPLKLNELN
[^3 H]-LTB4 binding to guinea pig lung membranes, sequence (H0VYV8 1-348): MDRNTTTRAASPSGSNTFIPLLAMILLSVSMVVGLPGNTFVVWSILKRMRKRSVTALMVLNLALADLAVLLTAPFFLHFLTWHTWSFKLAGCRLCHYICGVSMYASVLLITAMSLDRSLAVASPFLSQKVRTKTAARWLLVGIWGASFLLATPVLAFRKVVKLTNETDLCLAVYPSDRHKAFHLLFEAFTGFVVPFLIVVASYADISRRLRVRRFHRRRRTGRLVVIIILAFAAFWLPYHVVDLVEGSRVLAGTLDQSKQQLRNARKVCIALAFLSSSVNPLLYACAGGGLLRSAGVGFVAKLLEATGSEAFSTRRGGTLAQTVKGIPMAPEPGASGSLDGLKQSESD

Compound	Ki [1] [nM]	IC50 [2] [nM]
CCc1cc(C(C)=O)c(O)cc1OCCCOc1ccc2c(=O)c3cc(C(=O)O)ccc3oc2c1CCC(=O)O [Example 15, 3-[4-[7-carboxy-3-[3-(4-acetyl-2-ethyl-5-hydroxyphenoxy)propoxy]-9-oxo-9H-xanthene]]propanoic acid trisodium salt trihydrate]	0.977	
CCc1cc(C(C)=O)c(O)cc1OCCCOc1ccc2oc3ccccc3c2c1CCC(=O)O [Example 8, 3-[1-[2-[3-(4-acetyl-2-ethyl-5-hydroxyphenoxy)propoxy]dibenzofuran]]propanoic acid disodium salt]	2.04	43
CCCc1c(OCCCOc2cc(O)c(C(C)=O)cc2CC)cccc1Oc1ccccc1C(=O)O [Example 19, 2-[3-[3-(4-Acetyl-2-ethyl-5-hydroxyphenoxy)propoxy]-2-propylphenoxy]benzoic acid disodium salt hydrate]	34.7	24
CCc1cc(C(C)=O)c(O)cc1OCCCOc1cccc(Oc2ccccc2C(=O)O)c1 [Example 13, 2-[3-[3-(4-acetyl-2-ethyl-5-hydroxyphenoxy)propoxy]phenoxy]benzoic acid disodium salt hemihydrate]	182	291
CCCc1c(OCCCOc2cc(O)c(C(C)=O)cc2CC)ccc2c1OC(C(=O)O)CC2 (centres unmarked) [Example 1, 7-[3-(4-acetyl-2-ethyl-5-hydroxyphenoxy)propoxy]-3,4-dihydro-8-propyl-2H-1-benzopyran-2-carboxylic acid]	8.13	
CCc1cc(C(C)=O)c(O)cc1OCCCOc1ccc(-c2ccccc2)cc1CCC(=O)O [Example 11, 3-[1-[5-phenyl-2-[3-(4-acetyl-2-ethyl-5-hydroxyphenoxy)propoxy]phenyl]]propanoic acid disodium salt]	28.2	115
CCc1cc(C(C)=O)c(O)cc1OCCCOc1ccc(C(=O)c2cccc(C(=O)O)c2)cc1CCC(=O)O [Example 20, 3-[1-[2-[3-(4-acetyl-2-ethyl-5-hydroxyphenoxy)propoxy]-5-(3-carboxybenzoyl)phenyl]]propanoic acid trisodium salt hydrate]	6.61	46
CCCc1c(OCCCOc2cc(O)c(C(C)=O)cc2CC)cccc1OC(C)C(=O)O (centres unmarked) [Example 4, 2-[3-[3-(4-acetyl-2-ethyl-5-hydroxyphenoxy)propoxy)-2-propylphenoxy]propanoic acid]	15.1	23
CCCc1c(OCCCCOc2cc(O)c(C(C)=O)cc2CC)cccc1Oc1ccccc1C(=O)O [Example 18, 2-[3-[4-(4-Acetyl-2-ethyl-5-hydroxyphenoxy)butoxy]-2-propyl-phenoxy]benzoic acid disodium salt]	53.7	94
CCCc1c(OCCCOc2cc(O)c(C(C)=O)cc2CC)cccc1OCc1ccccc1C(=O)O [Example 17, 2-[[3-[3-(4-acetyl-2-ethyl-5-hydroxyphenoxy)propoxy]-2-propylphenoxy]methyl]benzoic acid disodium salt hemihydrate]	170	127
CCc1cc(C(C)=O)c(O)cc1OCCCOc1cccc(Oc2cccc(C(=O)O)c2)c1 [Example 14, 3-[3-[3-(4-acetyl-2-ethyl-5-hydroxyphenoxy)propoxy]phenoxy]benzoic acid disodium salt hemihydrate]	174	456
CCc1cc(C(C)=O)c(O)cc1OCCCOc1ccc2ccc(OCC(=O)O)cc2c1 [Example 16, [2-[7-[3-(4-Acetyl-2-ethyl-5-hydroxyphenoxy)propoxy]naphthalenyl]oxy]acetic acid sodium salt hydrate]	117	409
CCCc1c(OCCCOc2cc(O)c(C(C)=O)cc2CC)c(I)cc2c1OC(C(=O)O)CC2 (centres unmarked) [Example 6, 6-iodo-8-propyl-7-[3-[4-acetyl-2-ethyl-5-hydroxyphenoxy)propoxy]-3,4-dihydro-2H-1-benzopyran-2-caroxylic acid]	25.7	327

Next, values leading:

Ki [1] [nM]	IC50 [2] [nM]	Compound
1000	326	CCCc1cc(Oc2ccc(C(=O)O)cc2)ccc1OCCCOc1cc(O)c(C(C)=O)cc1CC [sodium salt hydrate]
257	158	CCCc1cc(Oc2cccc(C(=O)O)c2)ccc1OCCCOc1cc(O)c(C(C)=O)cc1CC [Example 9, 3-[3-propyl-4-[3-(4-acetyl-2-ethyl-5-hydroxyphenoxy)propoxy]phenoxy]benzoic acid disodium salt]
741	190	CCc1cc(C(C)=O)c(O)cc1OCCCOc1ccc2c(=O)c3cc(C(=O)O)ccc3oc2c1 [Example 7, 6-[3-(4-acetyl-2-ethyl-5-hydroxyphenoxy)propoxy]-9-oxo-9H-xanthene-2-carboxylic acid disodium salt sesquihydrate]
132	193	CCc1cc(C(C)=O)c(O)cc1OCCCOc1ccc(Oc2ccc(C(=O)O)cc2)cc1 [sodium salt hydrate]
4.79	67	CCCc1c(OCCCOc2cc(O)c(C(C)=O)cc2CC)cccc1OCC(=O)O [Example 3, 2-[2-propyl-3-[[3-(4-acetyl-2-ethyl-5-hydroxyphenoxy)proyl]oxy]phenoxy]acetic acid]
13.8		CCCc1c(OCCCOc2cc(O)c(C(C)=O)cc2CC)cccc1OC(CC)C(=O)O (centres unmarked) [Example 5, 2-[3-[3-(4-acetyl-2-ethyl-5-hydroxyphenoxy)propoxy)-2-propylphenoxy]butanoic acid]
